Measurements from ChEMBL document CHEMBL1131160, “5-Substituted pyrimidines with a 1,5-anhydro-2, 3-dideoxy-D-arabino-hexitol moiety at N-1: synthesis, antiviral activity, conformational analysis, and interaction with viral thymidine kinase” (1998).
In brackets after ≈: the same amount, converted by molar mass.

Experiments:
[1] = test system: Human cytomegalovirus (AD-169); assay: Compound was evaluated for the minimum inhibition concentration required to reduce virus-induced cytopathogenicity by 50%, determined against Cytomegalovirus (AD-169) in HEL cells.
E6SM [2] = assay: Compound was evaluated for the minimum inhibition concentration required to reduce virus-induced cytopathogenicity by 50%, determined against HSV-2 virus as means of G, 196, and Lyons strains; assay type: functional; conditions: Homo sapiens
E6SM [3] = assay: Compound was evaluated for the minimum inhibition concentration required to reduce virus-induced cytopathogenicity by 50%, determined against HSV-1 (TK-B2006) virus; assay type: functional; conditions: Homo sapiens
E6SM [4] = assay: Compound was evaluated for the minimum inhibition concentration required to reduce virus-induced cytopathogenicity by 50%, determined against KOS,F,McIntyre strains of HSV-1 virus.; assay type: functional; conditions: Homo sapiens
E6SM [5] = assay: Compound was evaluated for the minimum cytotoxic concentration required to cause a microscopically detectable alteration of normal cell morphology.; assay type: functional; conditions: Homo sapiens

SMILES | MIC [1] | MIC (E6SM [2]) | MIC (E6SM [3]) | MIC (E6SM [4]) | MCC (E6SM [5])
C#Cc1cn(C2COC(CO)C(O)C2)c(=O)[nH]c1=O (configuration not stated) | > 50 µg/mL | > 400 µg/mL | > 400 µg/mL | 48 µg/mL (≈ 180 µM) | 
O=c1[nH]c(=O)n(C2COC(CO)C(O)C2)cc1Cl (configuration not stated) | > 50 µg/mL | > 400 µg/mL | > 400 µg/mL | > 400 µg/mL | > 400 µg/mL
O=c1[nH]c(=O)n(C2COC(CO)C(O)C2)cc1C(F)(F)F (configuration not stated) | > 50 µg/mL | 0.38 µg/mL (≈ 1.22 µM) | 9.8 µg/mL (≈ 31.6 µM) | 0.025 µg/mL (≈ 0.0806 µM) | > 400 µg/mL
CC#Cc1cn(C2COC(CO)C(O)C2)c(=O)[nH]c1=O (configuration not stated) | > 50 µg/mL | 16 µg/mL (≈ 57.1 µM) | 48 µg/mL (≈ 171 µM) | 0.38 µg/mL (≈ 1.36 µM) | > 400 µg/mL
C=Cc1cn(C2COC(CO)C(O)C2)c(=O)[nH]c1=O (configuration not stated) | > 50 µg/mL | 9.6 µg/mL (≈ 35.8 µM) | 240 µg/mL (≈ 895 µM) | 0.075 µg/mL (≈ 0.28 µM) | > 400 µg/mL
O=c1[nH]c(=O)n(C2COC(CO)C(O)C2)cc1-c1cccs1 (configuration not stated) | > 50 µg/mL | 240 µg/mL (≈ 740 µM) | 240 µg/mL (≈ 740 µM) | 240 µg/mL (≈ 740 µM) | > 400 µg/mL
O=c1[nH]c(=O)n(C2COC(CO)C(O)C2)cc1I (configuration not stated) | > 40 µg/mL | 0.5 µg/mL (≈ 1.36 µM) | > 400 µg/mL | 0.025 µg/mL (≈ 0.0679 µM) | > 400 µg/mL
Nc1nc2c(ncn2COCCO)c(=O)[nH]1 [ACYCLOVIR] |  | 0.38 µg/mL (≈ 1.69 µM) | 1.92 µg/mL (≈ 8.53 µM) | 0.075 µg/mL (≈ 0.333 µM) | > 200 µg/mL
O=c1[nH]c(=O)n([C@H]2C[C@H](O)[C@@H](CO)O2)cc1/C=C/Br [BRIVUDINE] |  | > 80 µg/mL | 3.2 µg/mL (≈ 9.61 µM) | 0.015 µg/mL (≈ 0.045 µM) | > 200 µg/mL
